Test results published in the CATMoS acute toxicity set (Mansouri et al. 2021).

Assay: GHS categories as the set defines them, by LD50: 1 up to 5, 2 up to 50, 3 up to 300, 4 up to 2000, 5 above 2000 mg/kg
Conditions: rat; in vivo; po

| SMILES | GHS category |
| --- | --- |
| COc1ccc(C2NC(=O)CCS2)cc1 (stereo unspecified) | 5 |
| COC(=O)CCN[N+](C)(C)C | 3 |
| COC1=CC(=O)C[C@@H](C)[C@]12Oc1c(Cl)c(OC)cc(OC)c1C2=O | 5 |
| CC(C)Oc1cccc(NC(=O)c2ccccc2C(F)(F)F)c1 | 5 |
| Cc1cccc2ncc(C(=O)NC(C)(C)C)c(=O)n12 | 3 |
| CC(=O)S[C@@H]1CC2=CC(=O)CC[C@]2(C)[C@H]2CC[C@@]3(C)[C@@H](CC[C@@]34CCC(=O)O4)[C@H]12 | 4 |
| OC(c1ccccc1)c1cccnc1Cl (stereo unspecified) | 5 |
| Cc1cc(Cc2cc(C)cc(C3CCCCC3)c2O)c(O)c(C2CCCCC2)c1 | 5 |
| CCN(CC)CCNC(C(=O)OCCC(C)C)c1ccccc1 (stereo unspecified) | 4 |
| CC(C)c1ccc(S(=O)(=O)O)cc1 | 5 |
| CCOC(=O)COc1nn(-c2cccc(C(F)(F)F)c2)c2ncccc12 | 4 |
| CCC(C)(CC)c1ccc(NC(=O)c2c(OC)cccc2OC)nn1 | 4 |
| c1ccc(-c2cc3ccccc3[nH]2)cc1 | 5 |
| O=S(=O)(O)Oc1ccc(C(c2ccc(O)cc2)c2ccccn2)cc1 (stereo unspecified) | 5 |
| CCCC(=O)c1ccc(NC)c(O)c1 | 5 |
| CCCCOC(=O)C(=O)[C@H]1[C@H](C)C[C@H]2[C@@H]3C[C@H](F)C4=CC(=O)C=C[C@]4(C)[C@H]3[C@@H](O)C[C@@]21C | 5 |
| CCCOc1nn(C(=O)NS(=O)(=O)c2ccccc2C(=O)OC)c(=O)n1C | 5 |
| c1ccc(C2c3ccccc3CCN2c2ccccc2)cc1 (stereo unspecified) | 4 |
| Brc1cnc2[nH]ccc2c1 | 5 |
| ClCCCCc1nnnn1C1CCCCC1 | 5 |
| CC(C)CCCCCCCCCCCCCCCO | 5 |
| O=CC(O)C(O)C(O)C(O)COC1OC(CO)C(O)C(O)C1O (stereo unspecified) | 4 |
| CC(=O)C1(c2ccccc2)CCN(CCCOc2ccc3c(c2)NC(=O)CC3)CC1 | 4 |

| SMILES | GHS category |
| --- | --- |
| C=C[Si]1(C)O[Si](C)(C=C)O[Si](C)(C=C)O[Si](C)(C=C)O1 (stereo unspecified) | 5 |
| CCC(=O)O[C@]1(C(=O)SCF)[C@H](C)C[C@H]2C3C[C@H](F)C4=CC(=O)C=C[C@]4(C)[C@@]3(F)[C@@H](O)C[C@@]21C (stereo partly specified) | 5 |
| CCCCC(CC)COC(=O)CCCCCCCC(=O)OCC(CC)CCCC (stereo unspecified) | 5 |
| CC(=O)OC[C@H]1O[C@@](COC(C)=O)(O[C@H]2O[C@H](COC(C)=O)[C@@H](OC(C)=O)[C@H](OC(C)=O)[C@H]2OC(C)=O)[C@@H](OC(C)=O)[C@@H]1OC(C)=O | 5 |
| C[C@@H]1CO[C@@](Cn2cncn2)(c2cc3cc(Cl)ccc3o2)O1 | 4 |
| CCOCC(C)OC(C)=O (stereo unspecified) | 5 |
| O=C1c2ccccc2C(=O)N1CCO | 5 |
| C=C(OCC)C1C(C)(C)CC(=O)CC1(C)C | 5 |
| CCCOc1ccc(-c2ccc(C#N)cc2)cc1 | 5 |
| CC(=O)n1c(=O)oc2ccc(Cl)cc21 | 5 |
| Cc1c(C)c2c(c(C)c1O)CCC(C)(CCCC(C)CCCC(C)CCCC(C)C)O2 (racemic) | 5 |
| CC(C)(C)c1ccc(OCC2CO2)cc1 (stereo unspecified) | 5 |
| C[C@]12CCC(=O)C[C@@H]1CC[C@@H]1[C@@H]2CC[C@@]2(C)[C@H]1CC[C@]2(C)O | 5 |
| OC1(c2ccc(-c3ccccc3)cc2)c2ccccc2C2=NCCN21 (stereo unspecified) | 4 |
| CS(=O)(=O)c1cc(C(F)(F)F)ccc1C(=O)c1cnoc1C1CC1 | 5 |
| CNc1cccc(NC(=O)C(=O)O)c1C#N | 5 |
| C=C[Si](C)(C)Cl | 3 |
| CC(C)OC(=O)C(C)N(C(=O)c1ccccc1)c1ccc(F)c(Cl)c1 (stereo unspecified) | 5 |
| CC(C)(O)CCC(C)(C)O | 5 |
| Cc1cc(-c2ccc(N=C=O)c(C)c2)ccc1N=C=O | 5 |
| Cc1cc(C)c(NC(=O)c2sc(N)nc2C)c(C)c1 | 4 |
| OC1C(Cl)(Cl)C(=C(Cl)Cl)C2(OC2Cl)C1(Cl)Cl (stereo unspecified) | 4 |
| O=C(Nc1ccc(Cl)cc1)NS(=O)(=O)c1ccc2c(c1)CCC2 | 4 |

| SMILES | GHS category |
| --- | --- |
| CC(C)C1(C)N=C(c2ncccc2C(=O)O)NC1=O (stereo unspecified) | 5 |
| Cn1nnnc1SCC1=C(C(=O)O)N2C(=O)[C@@H](NC(=O)[C@H](O)c3ccccc3)[C@H]2SC1 | 5 |
| Cc1c(OCC(F)(F)F)ccnc1CS(=O)c1nc2ccccc2[nH]1 (stereo unspecified) | 5 |
| CC(C)CCC[C@@H](C)[C@H]1CC[C@H]2[C@@H]3CC=C4C[C@@H](O)CC[C@]4(C)[C@H]3CC[C@]12C | 5 |
| C=CCc1cc(C(C)(C)c2ccc(O)c(CC=C)c2)ccc1O | 5 |
| O=C(O)c1cc(C(=O)O)cc([N+](=O)[O-])c1 | 5 |
| CC(C)CC(C)(C)C | 5 |
| S=C(SSC(=S)N(Cc1ccccc1)Cc1ccccc1)N(Cc1ccccc1)Cc1ccccc1 | 5 |
| C=CC(=O)OCC[N+](C)(C)Cc1ccccc1 | 5 |
| CC[C@@]12C=C(C(=O)OC3OC(=O)c4ccccc43)n3c4c(c5ccccc53)CCN(CCC1)[C@H]42 (stereo partly specified) | 5 |
| OCCN1CNC(=S)NC1 | 5 |
| CCOC(=O)C(C)(C)c1ccccc1 | 5 |
| CCCC(CCC)C(=O)Oc1ccccc1OC | 5 |
| C[C@@H]1CN([C@H]2CC[C@](C#N)(c3ccc(F)cc3)CC2)CC[C@]1(C(=O)O)c1ccccc1 | 5 |
| CN1CC(c2ccnn2-c2ccccc2)CC2c3cccc4[nH]cc(c34)CC21 (stereo unspecified) | 4 |
| CCSP(=O)(SCC)SCC | 3 |
| Cn1c(=O)oc2ccc(Cl)cc21 | 5 |
| O=C(O)c1ccccc1Nc1ccc(Cl)c2ccccc12 | 5 |
| CCN(CCOC(C)=O)c1ccc(N=Nc2nc3ccc(Cl)cc3s2)cc1 | 5 |
| O=C[C@H](O)[C@@H](O)[C@H](O)[C@H](O)CO[C@H]1O[C@H](CO[C@H]2O[C@H](CO)[C@@H](O)[C@H](O)[C@H]2O)[C@@H](O)[C@H](O)[C@H]1O | 5 |
| CC(C)C1C=C2CCC3C(C)(CO)CCCC3(C)C2CC1 (stereo unspecified) | 5 |
| CCCc1c(Cc2ccc(-c3ccccc3-c3nn[nH]n3)cc2)c(=O)nc2nc(N)[nH]n12 | 4 |
| CCCC(=O)NC(C)C(=O)O (stereo unspecified) | 5 |

| SMILES | GHS category |
| --- | --- |
| CC(C)(C)OOC(C)(C)c1cccc(C(C)(C)OOC(C)(C)C)c1 | 5 |
| CC1=C(CCC(=O)O)c2cc3[nH]c(cc4nc(cc5[nH]c(cc1n2)c(C)c5C(C)O)C(C)=C4C(C)O)c(C)c3CCC(=O)O (stereo unspecified) | 5 |
| CC(C)OC(=O)CCC/C=C\C[C@@H]1[C@@H](CC[C@@H](O)CCc2ccccc2)[C@H](O)C[C@@H]1O | 1 |
| CN(CC(=O)O)N=O | 5 |
| NCCS(=O)(=O)O | 5 |
| N[C@@H](Cc1c[nH]c2ccccc12)C(=O)O | 5 |
| O=C(O)[C@H]1O[C@@H](O)[C@@H](O)[C@@H](O)[C@@H]1O | 5 |
| CCOC(=O)C(C)(C)Br | 5 |
| C=CCOc1cc(Cl)ccc1C(=O)NCCN(CC)CC | 5 |
| Cc1ccn2c(=O)c(C(=O)NC3CCCC3)cnc2c1 | 3 |
| CCC(O)OCc1c(Cl)ccc(Cl)c1Cl (stereo unspecified) | 5 |
| CCOCC1COC(Cn2cncn2)(c2cc3ccccc3o2)O1 (stereo unspecified) | 4 |
| O=C(O)c1ccccc1C(=O)O | 5 |
| O=S(=O)(O)c1ccc(Nc2nc(Nc3ccc(C=Cc4ccc(Nc5nc(Nc6ccc(S(=O)(=O)O)cc6)nc(N6CCOCC6)n5)cc4S(=O)(=O)O)c(S(=O)(=O)O)c3)nc(N3CCOCC3)n2)cc1 | 5 |
| O=C(C(Cl)Cl)N(CCO)Cc1ccc(Oc2ccc([N+](=O)[O-])cc2)cc1 | 5 |
| O=C(Nc1ccc(Cl)c(Cl)c1)c1cc(Cl)cc(-c2ccccc2)c1O | 4 |
| CN(C)Cc1ccccc1Cl | 4 |
| COP(=S)(OC)Oc1ccc(/N=N/c2ccc(Cl)cc2)cc1 | 4 |
| CCCN(CC)CC1COC2(CCC(C(C)(C)C)CC2)O1 (stereo unspecified) | 4 |
| CCC(C)=NO[Si](ON=C(C)CC)(ON=C(C)CC)c1ccccc1 | 5 |
| C=C(C)C(=O)OCCCCCCCCCCCC | 5 |
| CC(C)(c1cc(Br)c(O)c(Br)c1)c1cc(Br)c(O)c(Br)c1 | 5 |
| O=c1c2ccccc2c(=O)c2c1cc(Cl)c1[nH]c3c([nH]c12)c(Cl)cc1c(=O)c2ccccc2c(=O)c13 | 5 |

| SMILES | GHS category |
| --- | --- |
| O=S(=O)(O)c1cc(O)c2c(N=Nc3ccc(Nc4ccccc4)c4c(S(=O)(=O)O)cccc34)cc(S(=O)(=O)O)cc2c1 | 5 |
| CC(C)C(=O)OCCOc1ccccc1 | 5 |
| CCC[C@H](N[C@@H](C)C(=O)N1[C@H](C(=O)O)C[C@@H]2CCCC[C@@H]21)C(=O)OCC | 5 |
| N#Cc1ccc(N(c2ccc(C#N)cc2)c2ccc3c(c2)C(=O)N(Cc2cccnc2)C3=O)cc1 | 5 |
| Oc1ccc(-c2ccccc2)cc1 | 5 |
| CC(=O)CC(=O)O[C@H]1C[C@@H](C)CC[C@@H]1C(C)C | 5 |
| OC[C@H]1CO[C@@](Cn2cncn2)(c2cc3ccccc3o2)O1 | 4 |
| CC(=O)OC1C(N2CCCC2)CC2C3CCC4CC(O)C(N5CCOCC5)CC4(C)C3CCC21C (stereo unspecified) | 5 |
| CCCCCCCCCC(=O)Nc1ccc(Cc2ccccn2)c([N+](=O)[O-])c1 | 3 |
| N#Cc1c(Cl)nc(Cl)c(C#N)c1-c1ccccc1 | 5 |
| CCCCCCCCCC(C)C(OC)OC (stereo unspecified) | 5 |
| CC(C)(C)OP(=O)(O)OC(C)(C)C | 5 |
| Brc1cc(Oc2cc(Br)c(Br)c(Br)c2Br)c(Br)c(Br)c1Br | 5 |
| CC(=O)Nc1ccc(C(C[N+](=O)[O-])Sc2ccc(C)cc2)cc1 (stereo unspecified) | 5 |
| CN(CCOP(=O)(O)O)C(=N)N | 5 |
| CC1OC(Cn2cncn2)(c2cc3cc(Cl)cc(Cl)c3o2)OC1C (stereo unspecified) | 4 |
| CNc1nc(Nc2ccccc2)nc(Nc2ccc(C=Cc3ccc(Nc4nc(NC)nc(Nc5ccccc5)n4)cc3S(=O)(=O)O)c(S(=O)(=O)O)c2)n1 | 5 |
| CCCc1c(Cc2ccc(-c3ccccc3-c3nn[nH]n3)cc2)c(N=[N+]=[N-])nc2ncnn12 | 4 |
| CC(C)=C1CC[C@H](C)C2=C(C1)[C@@H](C)CC2 | 5 |
